Earlier results as cited in patent US20060240399A1, “Long-term shelf preservation of cells and multicellular specimens by vitrification” (priority 1999, published 2006).

system: Drosophila melanogaster embryos; settings: co-solute added to vitrification solution

Structure (SMILES) | effect on ethylene glycol permeation inside embryos
N[C@@H](CCC(=O)O)C(=O)O [glutamic acid] | significantly diminished
NCC(=O)O [glycine] | significantly diminished
OC[C@@H](O)[C@@H](O)[C@H](O)[C@@H](O)CO [sorbitol] | significantly diminished
